Results taken from paper PMC6381791, “Filamentous Aggregates Are Fragmented by the Proteasome Holoenzyme” (Cell Reports, 2019).
Numbered stars: 1 amine (or outer) side, 2 acyl side, 3 side chain; on linkers, the order of the positions; unused ones are H or OH. Peptide text beside a SMILES is read from it. * marks the point of attachment. AMC = Cc1cc(=O)oc2cc(N*)ccc12; Suc = O=C(CCC(=O)[*:2])[*:1]

Tests used:
[1] = molecular target: T1, 26S proteasome holoenzyme (proteolytic core sites) (Homo sapiens, UniProt P28074); assay: AMC fluorescence ([…] nm); format: biochemical; conditions: 1 μM substrate, 40 nM proteasome, alone or with heparin or tau aggregates
T1 construct: gene PSMB5; 26S holoenzyme (20S core with one or two 19S caps) purified from HEK293T via Rpn11-His6-TEV-biotin, TEV eluted; with Proteasome subunit beta type-1; Proteasome subunit beta type-2; Proteasome subunit beta type-3; Proteasome subunit beta type-4; Proteasome subunit alpha type-1; Proteasome subunit alpha type-2; Proteasome subunit alpha type-3; Proteasome subunit alpha type-4; Proteasome subunit alpha type-5; Proteasome subunit alpha type-6; Proteasome subunit alpha type-7; 26S proteasome non-ATPase regulatory subunit 14

[2] = molecular target: T2, α-synuclein (αS), fibrils (Homo sapiens, UniProt P37840); assay: TIRF single-aggregate fluorescence; format: binding; conditions: 30 nM pFTAA in PBS, 100 nM αS (monomer equivalent); binds amyloid fibrils
T2 construct: gene SNCA; untagged wild-type recombinant from E. coli BL21(DE3) pLysS; fibrils assembled in PBS with shaking

Cc1cc(=O)oc2cc(NC(=O)[C@H](Cc3ccc(O)cc3)NC(=O)[C@@H](NC(=O)[C@H](CC(C)C)NC(=O)[C@H](CC(C)C)NC(=O)CCC(=O)O)C(C)C)ccc12 [LLVY-AMC] (Suc-LLVY-{AMC})
AMC fluorescence (340/440 nm) [1]: proteasomal peptidase activity against a model substrate, suc-Leu-Leu-Val-Tyr-7-amino-4-methylcoumarin (LLVY-AMC)

O=C(O)Cc1cc(-c2ccc(C(=O)O)s2)sc1-c1ccc(-c2sc(-c3ccc(C(=O)O)s3)cc2CC(=O)O)s1 [pFTAA]
TIRF single-aggregate fluorescence [2]: Fibrils assembled from αS could be reproducibly detected
